For 80 molecules, viability results are on record in PMC12040169 (PLOS Biology, 2025).

A short description of this series: in vitro. The note with it: human, hela cells, % viability.
Turning to `COc1ccc(Nc2ccc(-c3ccc4c(c3)OCO4)cn2)c(C)c1` [CBK036799], the viability at 28.5 h, 10 µM is 102%.
On to `CCC(CO)Nc1nccnc1-c1cccs1` (centres unmarked) [CBK036800], for which the viability at 28.5 h, 10 µM came out at 98.3%.
With `CO[C@@H](C(=O)Nc1cnc(-c2ccc(F)cc2)c(-c2ccsc2)n1)c1ccccc1` [CBK036803] the figure was 98.4%.
In the case of `FC(F)(F)Oc1ccc(CNc2nccnc2-c2cccs2)cc1` [CBK036806], the viability at 28.5 h, 10 µM is 100%.
To `O=C(CCc1cccnc1)Nc1cnc(-c2cccc(OC(F)(F)F)c2)c(-c2cccnc2)n1` [CBK036811] belongs 94.5%.
Take `O=C(c1ccc(-c2nccnc2NCC2CC2)cc1)N1CCOCC1` [CBK036814]: the viability at 28.5 h, 10 µM is 88.8%.
Turning to `COc1ccc(-c2ccc(N3CCN(CCN(C)C)CC3)nc2)cc1OC` [CBK036818], the viability at 28.5 h, 10 µM worked out at 98.2%.
Consider `O=C(Nc1cnc(-c2ccc(F)c(Cl)c2)c(-c2cccnc2)n1)c1cnccn1` [CBK036819], for which the viability at 28.5 h, 10 µM was 102%.
As to `CN(C)CCN(C)c1ccc(-c2cc3ccccc3o2)cn1` [CBK036820], the viability at 28.5 h, 10 µM was 107%.
To `Fc1ccc(-c2ccc(N3CCN(c4ccncc4)CC3)nc2)cc1Cl` [CBK036821] belongs 111%; to `CN(C)CCN(C)c1cccc(/C=C/c2ccccc2)n1` [CBK036826], 109%; to `COc1ccc(Nc2ccc(-c3cnc(OC)nc3OC)cn2)c(C)c1` [CBK036827], 115%.
In the case of `C=CCNc1nccnc1-c1ccccc1OC` [CBK036831], the viability at 28.5 h, 10 µM stood at 106%.
Consider `O=C1CCCN1CCCNc1nccnc1-c1ccncc1` [CBK036832], for which the viability at 28.5 h, 10 µM was 106%.
With `FC(F)(F)c1ccc(CNc2nccnc2-c2cccs2)cc1` [CBK036834] the figure was 98.6%; with `O=C(Nc1cnc(-c2cccc(OC(F)(F)F)c2)c(-c2cccnc2)n1)c1ccccn1` [CBK036837], 99.2%.
With `CN1CCN(C(=O)c2ccc(-c3nccnc3NCCc3cccnc3)cc2)CC1` [CBK036838] the figure was 97.2%; with `COc1ccc(-c2nc(NC(=O)Cc3ccccc3OC)cnc2-c2cccc(C)c2)cn1` [CBK036839], 111%; with `CC(=O)c1ccc(-c2nc(NC(=O)CC#N)cnc2-c2ccc(F)c(Cl)c2)s1` [CBK036841], 108%.
To `O=C(CCN1CCCCC1)Nc1cnc(-c2ccc(F)cc2)c(-c2ccsc2)n1` [CBK036846] belongs 90.3%; to `COc1ncc(-c2ccc(N3CCN(c4ccncc4)CC3)nc2)c(OC)n1` [CBK036848], 99.1%.
As to `c1ccc(N2CCN(c3cccc(-c4ccc5c(c4)OCO5)n3)CC2)nc1` [CBK036851], the viability at 28.5 h, 10 µM was determined as 104%.
On to `O=C1CCCN1CCCNc1nccnc1-c1ccc(CO)cc1` [CBK036860], for which the viability at 28.5 h, 10 µM was 87.2%.
Take `Fc1cccc(-c2nccnc2NCCc2c[nH]c3ccccc23)c1` [CBK036861]: the viability at 28.5 h, 10 µM stood at 96.7%.
Consider `COCCNc1nccnc1-c1cccc(C(=O)N2CCN(C)CC2)c1` [CBK036864], for which the viability at 28.5 h, 10 µM was found to be 99.9%.
Regarding `COc1cc(CNc2nccnc2-c2ccc(C(=O)N3CCOCC3)cc2)cc(OC)c1` [CBK036866], the viability at 28.5 h, 10 µM was found to be 99.2%.
To `O=C(Nc1cnc(-c2cccc(C(F)(F)F)c2)c(-c2ccco2)n1)c1ccccn1` [CBK036873] belongs 88.5%.
Regarding `c1ccc(N2CCN(c3cccc(-c4cc5ccccc5o4)n3)CC2)nc1` [CBK036875], the viability at 28.5 h, 10 µM was found to be 107%.
In the case of `CN1CCN(c2nccnc2-c2cccc(F)c2)CC1` [CBK036876], the viability at 28.5 h, 10 µM amounted to 89.8%.
Take `CN(C)c1cccc(Nc2ccc(-c3cccc(C(=O)O)c3)cn2)c1` [CBK036879]: the viability at 28.5 h, 10 µM is 101%.
Consider `O=C(O)c1cccc(-c2cccc(N3CCN(c4ccccn4)CC3)n2)c1` [CBK036888], for which the viability at 28.5 h, 10 µM was found to be 92.7%.
In the case of `COc1ccccc1-c1nccnc1NCc1ccccn1` [CBK036894], the viability at 28.5 h, 10 µM stood at 108%.
With `O=C(CCOc1ccccc1F)Nc1cnc(-c2ccc(F)cc2)c(-c2ccsc2)n1` [CBK036897] the figure was 99.7%.
For the molecule `C=CCNc1nccnc1-c1ccc(O)cc1` [CBK036898], the viability at 28.5 h, 10 µM came out at 99.6%.
For the molecule `CN(C)c1ccc(CC(=O)Nc2cnc(-c3cccc(C(F)(F)F)c3)c(-c3cccnc3)n2)cc1` [CBK036901], the viability at 28.5 h, 10 µM amounted to 98.2%.
To `COc1cc(-c2ccc(NCCn3cc[nH]c3=O)nc2)cc(OC)c1OC` [CBK036907] belongs 106%.
Turning to `COc1ccccc1-c1ccc(Nc2ccccc2)nc1` [CBK036909], the viability at 28.5 h, 10 µM was 85.4%.
As for `NCCCNc1ccc(-c2ccco2)cn1` [CBK036911], the viability at 28.5 h, 10 µM came out at 100%.
Take `c1ccc(Oc2ccccc2-c2ccc(Nc3ccc(N4CCOCC4)cc3)nc2)cc1` [CBK036913]: the viability at 28.5 h, 10 µM turned out to be 108%.
To `CN(C)c1cccc(Nc2ccc(-c3ccc(CCC(=O)O)cc3)cn2)c1` [CBK036918] belongs 97.2%; to `O=C(c1ccc(-c2nccnc2NCc2ccco2)cc1)N1CCOCC1` [CBK036920], 98.6%; to `CS(=O)(=O)c1ccc(-c2nccnc2N2CCN(c3ccncc3)CC2)cc1` [CBK036924], 98.5%.
`CN(C)c1ccc(-c2nccnc2NCC(O)COc2ccccc2)cc1` (centres unmarked) [CBK036928]: the viability at 28.5 h, 10 µM is 103%.
As to `CC(=O)c1ccc(-c2nc(NC(=O)c3ccccn3)cnc2-c2cccc(OC(F)(F)F)c2)s1` [CBK036929], the viability at 28.5 h, 10 µM came to 107%.
Take `Cc1ccc(-c2ccc(N3CCN(C)CC3)nc2)cc1C` [CBK036937]: the viability at 28.5 h, 10 µM was determined as 93.7%.
With `CCOc1ccccc1C(=O)Nc1cnc(-c2cccc(OC(F)(F)F)c2)c(-c2cccnc2)n1` [CBK036952] the figure was 114%; with `COc1ccc(-c2nc(NC(=O)c3ccco3)cnc2-c2cccc(C)c2)cn1` [CBK036954], 96.8%.
With `O=C(COc1ccccc1)Nc1cnc(-c2ccc(F)cc2)c(-c2ccsc2)n1` [CBK036958], the viability at 28.5 h, 10 µM was 91.7%.
With `CC(=O)Nc1cccc(-c2cc(N3CCN(C(=O)c4ccco4)CC3)ncn2)c1` [CBK036959], the viability at 28.5 h, 10 µM came to 93.7%.
With `c1ccc(CCNc2cc(-c3ccsc3)ncn2)nc1` [CBK036963], the viability at 28.5 h, 10 µM was 93.9%.
Consider `c1cncc(-c2nccnc2N2CCN(c3ccncc3)CC2)c1` [CBK036965], for which the viability at 28.5 h, 10 µM was found to be 86.4%.
Take `COc1ccc(N2CCN(c3nccnc3-c3ccc(C(C)=O)s3)CC2)cc1OC` [CBK036968]: the viability at 28.5 h, 10 µM amounted to 109%.
For the molecule `COc1ccc(-c2cc(Nc3ccc(N(C)C)cc3)ncn2)cc1OC` [CBK036969], the viability at 28.5 h, 10 µM amounted to 108%.
With `COc1ncc(-c2nccnc2NCC(C)O)c(OC)n1` (centres unmarked) [CBK036970], the viability at 28.5 h, 10 µM came to 105%.
Take `CCN(CC)CCN1CCN(c2cc(-c3ccsc3)ncn2)CC1` [CBK036973]: the viability at 28.5 h, 10 µM was 93.7%.
For `c1ccc(CN2CC[C@H](Nc3nccnc3-c3cccnc3)C2)cc1` [CBK036978], the viability at 28.5 h, 10 µM came to 104%.
Consider `CCCC/C=C/c1ccc(N2CCN(CCN(C)C)CC2)nc1` [CBK036980], for which the viability at 28.5 h, 10 µM is 101%.
As for `CC(=O)c1ccc(-c2nccnc2N[C@@H]2CCN(Cc3ccccc3)C2)s1` [CBK036981], the viability at 28.5 h, 10 µM came to 104%.
To `CN1CCN(c2cccc(-c3cc(C(F)(F)F)cc(C(F)(F)F)c3)n2)CC1` [CBK036982] belongs 93.3%.
Take `CN(C)CCN(C)c1cccc(-c2ccc(CCC(=O)O)cc2)n1` [CBK036983]: the viability at 28.5 h, 10 µM stood at 105%.
As to `CN(C)c1cccc(Nc2ccc(/C=C/c3ccccc3)cn2)c1` [CBK036984], the viability at 28.5 h, 10 µM stood at 98.7%.
As for `Nc1cccc(-c2ccc(NCc3cc(F)c(F)c(F)c3)nc2)c1` [CBK036985], the viability at 28.5 h, 10 µM amounted to 97.2%.
To `c1ccc(Oc2ccc(Nc3cccc(-c4ccc(N5CCOCC5)cc4)n3)cc2)cc1` [CBK036986] belongs 95.4%; to `COc1cc(Nc2cccc(-c3ccsc3)n2)cc(OC)c1OC` [CBK036987], 97.9%.
As for `CC(=O)c1ccc(-c2cc(N3CCN(C(=O)c4ccco4)CC3)ncn2)s1` [CBK036999], the viability at 28.5 h, 10 µM came to 105%.
To `COc1ccccc1CCC(=O)Nc1cnc(-c2ccc(F)cc2)c(-c2ccco2)n1` [CBK037002] belongs 95.1%; to `CC(=O)c1ccc(-c2nccnc2N2CCN(c3ccncc3)CC2)s1` [CBK037015], 95.8%.
Take `C=CCNc1nccnc1-c1cccnc1` [CBK037016]: the viability at 28.5 h, 10 µM was 101%.
Consider `Oc1cccc(-c2nccnc2N[C@@H]2CCN(Cc3ccccc3)C2)c1` [CBK037017], for which the viability at 28.5 h, 10 µM was determined as 98.2%.
For the molecule `CN1CCN(c2cccc(-c3cc4ccccc4s3)n2)CC1` [CBK037019], the viability at 28.5 h, 10 µM is 102%.
Turning to `COc1ccc(Nc2ccc(-c3cccc(OC(F)(F)F)c3)cn2)cn1` [CBK037022], the viability at 28.5 h, 10 µM stood at 100%.
To `COc1cncc(-c2cccc(N3CCN(CCN(C)C)CC3)n2)c1` [CBK037024] belongs 97.4%.
On to `Oc1ccc(-c2cccc(N3CCN(c4ccccn4)CC3)n2)cc1` [CBK037028], for which the viability at 28.5 h, 10 µM was 103%.
Consider `CN(C)CCN1CCN(c2cccc(-c3ccncc3)n2)CC1` [CBK037029], for which the viability at 28.5 h, 10 µM was 95.9%.
As to `Cc1cccc(-c2ncc(NC(=O)Cc3ccc(OC(F)(F)F)cc3)nc2-c2cccnc2)c1` [CBK037030], the viability at 28.5 h, 10 µM amounted to 89.2%.
`C[C@H](Nc1nccnc1-c1ccco1)c1ccccc1` [CBK037032]: the viability at 28.5 h, 10 µM is 93.1%.
With `COc1ncc(-c2cc(N3CCN(CCN(C)C)CC3)n3nccc3n2)c(OC)n1` [CBK037033] the figure was 87.7%; with `CC(=O)N1CCC(C(=O)Nc2cnc(-c3ccc(F)cc3)c(-c3ccco3)n2)CC1` [CBK037038], 104%.
Regarding `CN(C)c1ccccc1-c1cc(N2CCN(S(=O)(=O)c3ccc(Cl)cc3)CC2)ncn1` [CBK037039], the viability at 28.5 h, 10 µM was 81.7%.
Regarding `Clc1cc(NCc2ccc(Cl)c(Cl)c2)n2nccc2n1` [CBK037043], the viability at 28.5 h, 10 µM is 97.7%.

The term viability denotes a read-out of living cells in per cent, often relative to untreated cells.
